According to PubChem BioAssay (NCI):
“And” between values parts separate entries of the source, which are not always exact repeats. Equal values may be shown once.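 Grown in 96-well plates, cells were treated for 48 hours with each compound at five concentrations. Insufficient inhibition: endpoint recorded as highest concentration tested. GI50 is the concentration that inhibits growth by half. TGI is the concentration that stops growth completely.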

Assays:
Assay in all cases: DTP human tumour cell line panel, 48 h
[1] = system: COLO 205 colon
[2] = system: HCT-116 colon
[3] = system: NCI/ADR-RES ovarian
[4] = system: 786-0 renal
[5] = system: HT29 colon
[6] = system: A549 NSCLC
[7] = system: LOX IMVI melanoma
[8] = system: UACC-62 melanoma

Row | Structure (SMILES) | GI50 [1] | TGI [1] | GI50 [2] | TGI [2] | GI50 [3] | TGI [3] | GI50 [4] | TGI [4] | GI50 [5] | TGI [5] | GI50 [6] | TGI [6] | GI50 [7] | TGI [7] | GI50 [8] | TGI [8]
1 | C=CCC(N[C@@H](CO)c1ccccc1)c1ccccn1 (stereo not given in full) | > 100000 nM | > 100000 nM | > 100000 nM | > 100000 nM | > 100000 nM | > 100000 nM | > 100000 nM | > 100000 nM | > 100000 nM | > 100000 nM | > 100000 nM | > 100000 nM | > 100000 nM | > 100000 nM | > 100000 nM | > 100000 nM
2 | COc1ccccc1-c1ccc2nc(NC(=O)Nc3cc(C(F)(F)F)cc(C(F)(F)F)c3)sc2c1 | 1650 nM | 3920 nM | 1070 nM | 2450 nM | 2370 nM | 7190 nM | 1440 nM | 3250 nM | 2150 nM | 9210 nM | 3190 nM | 11800 nM | 1680 nM | 3130 nM | 1560 nM | 3260 nM
3 | COc1cccc2c1C(=O)c1c(O)c3c(c(O)c1C2=O)C[C@@](O)(C(=O)CO)C[C@@H]3OC1CC(OC(C)=O)C(OC(C)=O)C(C)O1 (stereo not given in full) | 801 nM | 4450 nM | 279 nM | 1890 nM | 552 nM |  | 272 nM | 1410 nM | 1020 nM | > 32100 nM | 410 nM | 2770 nM | 284 nM | > 20000 nM | 230 nM | 1890 nM
4 | COc1cccc2c1nc1cccc(OC)c1[n+]2[O-] | 10900 nM | 26700 nM | 3640 nM | 16900 nM | 5510 nM | 28400 nM | 3610 nM | 15000 nM | 1550 nM | 13900 nM | 7800 nM | 38900 nM | 4230 nM | 18400 nM | 3350 nM | 14100 nM
5 | CN(C)c1ccc(/C=C/c2ccnc3ccc4ccccc4c23)cc1 |  | > 100000 nM |  | > 100000 nM |  | > 100000 nM |  | > 100000 nM |  | > 100000 nM |  | > 100000 nM |  | > 100000 nM |  | > 100000 nM
6 | CC(C)(C)CC(C)(C)N(CSc1ccc(Cl)cc1)CSc1ccc(Cl)cc1 | 2150 nM | 4190 nM | 1420 nM | 5850 nM | 2420 nM | > 100000 nM | 1560 nM | 4010 nM | 2830 nM | 9180 nM | 452 nM | 7700 nM | 337 nM | 1060 nM | 1720 nM | 3770 nM
7 | COc1ccc(-c2ccc3ncc4c(c3c2)n(-c2ccc(N3CCNCC3)c(C(F)(F)F)c2)c(=O)n4C)cn1 | < 10 nM and 9.94 nM |  | < 14.3 nM and 8.53 nM | 165 nM and 142 nM | 53.1 nM and 59.5 nM | 1270 nM and 712 nM | < 10 nM and 3.25 nM | 111 nM and 107 nM | < 10 nM and 6.58 nM | 122 nM and 393 nM | < 10 nM and 6.07 nM | 153 nM and 329 nM | < 10 nM and 4.03 nM | 359 nM and 88.2 nM | < 10 nM and 5.99 nM | 26.9 nM and 28.6 nM
8 | COc1ccc(C2=CC(c3ccc(Oc4ccnc5cc(Cl)ccc45)c(OC)c3)c3c(nc(OC)[nH]c3=O)N2)cc1 (stereo not given) | 79900 nM | > 100000 nM | 3620 nM | > 100000 nM | 9880 nM | > 100000 nM | 18400 nM | > 100000 nM | 4240 nM | > 100000 nM | 5660 nM | > 100000 nM | 4040 nM | 67200 nM | 4390 nM | 35700 nM
9 | CC(C)(C)OC(=O)N1CC(Cn2cc(C(F)(F)F)c3c(Cl)ncnc32)C1 | 12600 nM | 28500 nM | 1860 nM | 3350 nM | 13900 nM | 65400 nM | 16800 nM | 36700 nM | 2600 nM | 6670 nM | 14000 nM | 28200 nM | 1750 nM | 3270 nM | 1850 nM | 3650 nM
10 | CCc1nc(-n2c(CC)nc3ccccc3c2=O)nc(N)c1-c1ccc(Cl)cc1 | 19300 nM | > 79300 nM | > 26200 nM | > 100000 nM | 7170 nM | > 100000 nM | 8130 nM | > 100000 nM | 16200 nM | > 100000 nM | 2380 nM | > 100000 nM | 6910 nM | > 100000 nM | 5460 nM | > 100000 nM
11 | O=c1c2[nH]c3ccccc3c2nc2n1CCS2 | > 100000 nM | > 100000 nM | > 100000 nM | > 100000 nM | > 100000 nM | > 100000 nM | > 100000 nM | > 100000 nM | > 100000 nM | > 100000 nM | > 100000 nM | > 100000 nM | 54700 nM | > 100000 nM | 92700 nM | > 100000 nM
12 | C[C@@H]1[C@H]2[C@H](C=C3[C@@H]4CC[C@H]5Cc6nc7c(nc6C[C@]5(C)[C@H]4C[C@@H](O)[C@@]32C)C[C@@H]2CC[C@H]3C4=C[C@@H]5O[C@@]6(CC[C@](C)(CO)O6)[C@@H](C)[C@@]5(O)[C@@]4(C)[C@H](O)C[C@@H]3[C@@]2(C)C7)O[C@]12CCC(C)(C)O2 | 292 nM | 926 nM | 690 nM | 31200 nM | 11000 nM | > 100000 nM | 148 nM | 752 nM | 340 nM | 2470 nM | 809 nM | 14600 nM | 510 nM | 3600 nM | 348 nM | 2540 nM
13 | COc1cc2cn3c4ccc(O)cc4nc(N)c3c2cc1OC | 342 nM | 6600 nM | 93.1 nM | 1720 nM | 1920 nM | 17300 nM | 675 nM | 3050 nM | 714 nM | 4570 nM | 839 nM | 12900 nM | 62.1 nM | 1790 nM | 70.5 nM | 1630 nM
14 | C=CC[N+]1(CCO)CCN=C1CCCCCCCCCCCCC (stereo not given) | 1700 nM | 3080 nM | 1400 nM | 2690 nM | 1650 nM | 3010 nM | 1650 nM | 3010 nM | 1300 nM | 2560 nM | 1830 nM | 3300 nM | 1380 nM | 2680 nM | 1820 nM | 3520 nM
15 | COc1ccc2c(c1)C(=O)c1c-2c(OCCN(C)C)nc2cc(OC)ccc12 | 571 nM | 10800 nM | 344 nM | 1410 nM | 695 nM | 4200 nM | 1460 nM | 2840 nM | 333 nM | 1370 nM | 804 nM | 2800 nM | 751 nM | 2070 nM | 2120 nM | 8510 nM
